The target in data set [1] is T1, Lysine-specific histone demethylase 2 (Homo sapiens, UniProt Q8NB78).
T1 sequence (Q8NB78 whole entry): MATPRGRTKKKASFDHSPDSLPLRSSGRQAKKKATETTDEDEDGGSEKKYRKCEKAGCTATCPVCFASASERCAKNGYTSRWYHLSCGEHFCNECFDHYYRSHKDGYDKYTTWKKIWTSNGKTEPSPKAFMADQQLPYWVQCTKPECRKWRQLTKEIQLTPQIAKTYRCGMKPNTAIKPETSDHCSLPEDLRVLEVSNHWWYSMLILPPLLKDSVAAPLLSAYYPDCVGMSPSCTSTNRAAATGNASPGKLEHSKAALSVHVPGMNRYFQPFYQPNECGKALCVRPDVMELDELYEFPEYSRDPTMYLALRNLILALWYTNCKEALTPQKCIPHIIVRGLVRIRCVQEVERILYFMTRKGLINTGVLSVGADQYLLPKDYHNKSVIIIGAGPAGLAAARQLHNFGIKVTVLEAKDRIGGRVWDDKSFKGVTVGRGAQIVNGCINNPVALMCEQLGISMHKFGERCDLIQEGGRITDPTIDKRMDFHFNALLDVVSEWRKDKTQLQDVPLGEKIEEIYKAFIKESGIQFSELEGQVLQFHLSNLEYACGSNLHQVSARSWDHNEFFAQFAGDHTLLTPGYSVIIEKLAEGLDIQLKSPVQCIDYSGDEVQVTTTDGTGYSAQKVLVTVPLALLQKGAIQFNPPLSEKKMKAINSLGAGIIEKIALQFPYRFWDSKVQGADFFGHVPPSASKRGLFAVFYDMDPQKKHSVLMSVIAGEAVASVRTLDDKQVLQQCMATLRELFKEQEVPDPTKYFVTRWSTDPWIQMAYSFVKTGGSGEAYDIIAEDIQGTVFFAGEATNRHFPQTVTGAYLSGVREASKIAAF
Put plainly: Inhibition of human LSD2 using H3K4Me2 peptide as substrate incubated for 60 min by peroxidase-coupled method.

Data set [2] is described as follows: Drug metabolism in human liver microsomes assessed as amino dealkylation of parent compound causing M1 metabolite formation at 3 uM incubated for 3 hrs by UPLC/Q-TOF MS analysis. Format: ADME, Microsome.
Data set [3] deals with MV4-11. Put plainly: Antiproliferative activity against human MV4-11 cells assessed as inhibition of cell growth incubated for 240 hrs by MTS assay. Format: functional, cell-based. Conditions: MV4-11, 240 h.
In the next data set the test system is RPMI-8226. Put plainly: Antiproliferative activity against human RPMI-8226 cells assessed as inhibition of cell growth incubated for 240 hrs by MTS assay. Format: functional, cell-based. The settings on record: RPMI-8226, 240 h.
For data set [4], the system named is MV4-11. Put plainly: Activation of CD86 expression in human MV4-11 cells incubated for 24 hrs by qRT-PCR analysis. Format: functional, cell-based. Conditions: MV4-11, 24 h.
Data set [5] has as its system MV4-11. Description: Induction of differentiation of human MV4-11 cells assessed as morphological changes by measuring reduction in nuclear to cytoplasmic ratio at 2.5 uM incubated for 240 hrs by Wright-Giemsa staining based microscopy. Format: functional, cell-based.
Data set [6] in a line: Metabolic stability in mouse hepatocytes at 3 uM incubated for 3 hrs by UPLC/Q-TOF MS analysis. Format: ADME, cell-based, Hepatocyte.
The nature of data set [7]: Metabolic stability in rat hepatocytes at 3 uM incubated for 3 hrs by UPLC/Q-TOF MS analysis. Format: ADME, cell-based, Hepatocyte.
Data set [8] in a line: Metabolic stability in dog hepatocytes at 3 uM incubated for 3 hrs by UPLC/Q-TOF MS analysis. Format: ADME, cell-based, Canis lupus familiaris, Hepatocyte.
Data set [9] is described as follows: AUC (0 to infinity) in ICR mouse at 20 mg/kg, po measured upto 24 hrs by LC-MS/MS analysis. Format: ADME, organism-based. The arrangement: dose 20 mg/kg, time < 24 hrs, route po. The settings on record: in vivo.
A short description of data set [10]: Cmax in ICR mouse at 20 mg/kg, po measured upto 24 hrs by LC-MS/MS analysis. Format: ADME, organism-based. On the set-up: time < 24 hrs, dose 20 mg/kg, route po. The settings on record: in vivo.
Data set [11] is described as follows: Half life in ICR mouse at 20 mg/kg, po measured upto 24 hrs by LC-MS/MS analysis. Format: ADME, organism-based. Conditions: in vivo.
Data set [12] relates to MV4-11. Description: In vivo antitumor activity against human MV4-11 cells xenografted in nu/nu mouse assessed as tumor volume at 10 mg/kg, po qd measured on day 1 (reference value: 154 +/- 53 mm3). Format: functional. The settings on record: time 1 day.
The test system of data set [13] is MV4-11. Description: In vivo antitumor activity against human MV4-11 cells xenografted in nu/nu mouse assessed as tumor volume at 10 mg/kg, po qd measured on day 15 (reference value: 959 +/- 111 mm3). Format: functional. The settings on record: time 15 day.
Data set [14] deals with MV4-11. Description: In vivo antitumor activity against human MV4-11 cells xenografted in nu/nu mouse assessed as tumor volume at 20 mg/kg, po qd measured on day 1 (reference value: 154 +/- 53 mm3). Format: functional. The settings on record: time 1 day.
In data set [15] the test system is MV4-11. Put plainly: In vivo antitumor activity against human MV4-11 cells xenografted in nu/nu mouse assessed as tumor volume at 20 mg/kg, po qd measured on day 15 (reference value: 959 +/- 111 mm3). Format: functional. The settings on record: time 15 day.
Data set [16] relates to MV4-11. Put plainly: In vivo antitumor activity against human MV4-11 cells xenografted in nu/nu mouse assessed as relative tumor volume at 10 mg/kg, po qd measured after 15 days (reference value: 6.85 +/- 1.84 ). Format: functional. Conditions: time 15 day.
Data set [17] has as its system MV4-11. Description: In vivo antitumor activity against human MV4-11 cells xenografted in nu/nu mouse assessed as relative tumor volume at 20 mg/kg, po qd measured after 15 days (reference value: 6.85 +/- 1.84 ). Format: functional. Conditions: time 15 day.
Data set [18] has as its system MV4-11. Description: In vivo antitumor activity against human MV4-11 cells xenografted in nu/nu mouse assessed as T/C ratio at 10 mg/kg, po qd measured after 15 days relative to control. Format: functional. Conditions: time 15 day.
In data set [19] the test system is MV4-11. Description: In vivo antitumor activity against human MV4-11 cells xenografted in nu/nu mouse assessed as T/C ratio at 20 mg/kg,po qd measured after 15 days relative to control. Format: functional. Conditions: time 15 day.
Data set [20] relates to MV4-11. Description: Induction of differentiation of human MV4-11 cells assessed as morphological changes by measuring segmented nucleus at 2.5 uM incubated for 240 hrs by Wright-Giemsa staining based microscopy. Format: functional, cell-based.
The nature of data set [21]: Drug metabolism in monkey liver microsomes assessed as amino dealkylation of parent compound causing M1 metabolite formation at 3 uM incubated for 3 hrs by UPLC/Q-TOF MS analysis. The settings on record: rhesus monkey. Format: ADME, Macaca mulatta, Microsome.
Data set [22] is described as follows: Drug metabolism in human liver microsomes assessed as N-acetyl M2 metabolite formation at 3 uM incubated for 3 hrs by UPLC/Q-TOF MS analysis. Format: ADME, Microsome.
Data set [23] is described as follows: Drug metabolism in monkey liver microsomes assessed as N-acetyl M2 metabolite formation at 3 uM incubated for 3 hrs by UPLC/Q-TOF MS analysis. Format: ADME, Macaca mulatta, Microsome. Conditions: rhesus monkey.
Data set [24] deals with T2, Amine oxidase [flavin-containing] A (Homo sapiens, UniProt P21397).
T2 sequence (P21397 whole entry): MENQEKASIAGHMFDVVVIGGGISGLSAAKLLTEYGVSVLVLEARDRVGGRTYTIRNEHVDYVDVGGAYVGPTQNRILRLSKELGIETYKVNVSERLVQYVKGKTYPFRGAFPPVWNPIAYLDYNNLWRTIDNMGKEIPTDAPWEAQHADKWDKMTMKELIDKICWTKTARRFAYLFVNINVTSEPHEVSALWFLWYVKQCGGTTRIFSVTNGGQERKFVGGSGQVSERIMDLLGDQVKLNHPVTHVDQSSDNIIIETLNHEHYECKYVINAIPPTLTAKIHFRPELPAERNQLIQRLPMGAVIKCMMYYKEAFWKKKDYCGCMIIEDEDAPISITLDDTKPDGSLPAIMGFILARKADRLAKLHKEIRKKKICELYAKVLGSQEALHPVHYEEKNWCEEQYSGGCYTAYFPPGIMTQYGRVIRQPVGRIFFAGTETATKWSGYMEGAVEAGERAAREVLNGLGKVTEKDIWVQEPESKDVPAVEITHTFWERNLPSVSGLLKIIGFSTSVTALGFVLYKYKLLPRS
Put plainly: biochemical.
Description: Inhibition of human recombinant MAO-A expressed in baculovirus infected BTI insect cells using luminogenic MAO substrate incubated for 1 hr by luciferin-based luminescence assay

Data set [25] concerns the target T3, Amine oxidase [flavin-containing] B (Homo sapiens, UniProt P27338).
T3 sequence (P27338 whole entry): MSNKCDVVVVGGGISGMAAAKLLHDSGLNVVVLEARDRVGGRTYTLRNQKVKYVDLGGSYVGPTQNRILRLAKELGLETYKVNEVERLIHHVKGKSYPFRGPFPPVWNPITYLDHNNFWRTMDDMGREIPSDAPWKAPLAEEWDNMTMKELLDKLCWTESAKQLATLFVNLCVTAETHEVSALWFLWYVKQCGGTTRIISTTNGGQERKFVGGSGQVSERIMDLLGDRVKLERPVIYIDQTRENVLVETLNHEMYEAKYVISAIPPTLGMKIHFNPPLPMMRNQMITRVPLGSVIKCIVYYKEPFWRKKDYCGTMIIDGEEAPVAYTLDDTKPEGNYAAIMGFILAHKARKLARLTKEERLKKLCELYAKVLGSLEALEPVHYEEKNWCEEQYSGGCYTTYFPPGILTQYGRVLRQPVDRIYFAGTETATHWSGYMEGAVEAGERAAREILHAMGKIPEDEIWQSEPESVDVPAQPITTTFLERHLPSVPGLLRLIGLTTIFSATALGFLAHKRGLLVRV
Description: biochemical.
Description: Inhibition of human recombinant MAO-B expressed in baculovirus infected BTI insect cells using luminogenic MAO substrate incubated for 1 hr by luciferin-based luminescence assay

Data set [26] deals with T1, Lysine-specific histone demethylase 2. Put plainly: Inhibition of recombinant human full length LSD2 using biotinylated H3K4Me2 peptide as substrate by TR-FRET assay.
Data set [27] is described as follows: Upregulation of CD86 expression in human MV4-11 cells assessed as fold change in CD86 expression at IC50 incubated for 24 hrs by qRT-PCR analysis relative to control. Format: functional.
The target in data set [28] is T1, Lysine-specific histone demethylase 2. Put plainly: Inhibition of human LSD2.
The target in data set [29] is T2, Amine oxidase [flavin-containing] A. Description: Inhibition of human MAOA.
Data set [30] has as its target T3, Amine oxidase [flavin-containing] B. Description: Inhibition of human MAOB.
Data set [31] deals with MV4-11. Description: Induction of differentiation of human MV4-11 cells assessed as morphological changes by measuring reduction in nuclear to cytoplasmic ratio at 5 uM incubated for 240 hrs by Wright-Giemsa staining based microscopy. Format: functional, cell-based.
Data set [32] concerns MV4-11. Put plainly: Induction of differentiation of human MV4-11 cells assessed as morphological changes by measuring segmented nucleus at 5 uM incubated for 240 hrs by Wright-Giemsa staining based microscopy. Format: functional, cell-based.
The target in data set [33] is Lysine-specific histone demethylase 1A (Homo sapiens) (UniProt O60341). The settings on record: dose 300.0 nM, time 1.0 hrs.

From ChEMBL document CHEMBL5154758, “Structure-Activity Relationship Study of Indolin-5-yl-cyclopropanamine Derivatives as Selective Lysine Specific Demethylase 1 (LSD1) Inhibitors” (J Med Chem, 2022) come the findings set out here.

Calls of active or inactive are those of the source. The rule behind the calls is not given here. A value given as a limit tells only on which side of the number the result lay.

As to `N[C@@H]1C[C@H]1c1ccc(NC(=O)c2ccccc2)cc1`, affinity in data set [1] was put at a Ki of 61 µM.
Turning to `O=S(=O)(c1ccccc1)N1CCc2cc(C3CC3NCC3CCNCC3)ccc21` (centres undefined), the Drug metabolism entry in data set [2], in [21], in data set [22] and in data set [23] was “Metabolite_Detected” throughout. Moreover, the 50% inhibitory concentration (IC50) with MV4-11 [3] was 1.36 µM; with RPMI-8226 it was over 20 µM; in [24] it was over 100 µM; in [25], over 100 µM. Besides, the EC50 in the data set with MV4-11 [4] came out at 0.47 µM. The result in the data set with MV4-11 [5] and in the data set on MV4-11 [20] was Active. The Stability entry in [6], in [7] and in [8] was “Stable” each time. In data set [9], this compound gave an AUC of 619 ng·h/mL. In [10], this compound returned a Cmax of 85.7 ng/mL. The same compound showed a half-life in data set [11] of 5.32 h. Further, the Activity in the data set with MV4-11 [12] is listed as 156 mm3; with MV4-11 [13], 522 mm3; in the data set with MV4-11 [14], 157 mm3; with MV4-11 [15] it was 334 mm3; with MV4-11 [16] it was 3.58; with MV4-11 [17] it was 2.12. Further, the Activity turned out to be 52.29% in the data set with MV4-11 [18] and 30.89% in the data set with MV4-11 [19].
`O=C(O)c1ccc(CN2CCC(CN[C@@H]3C[C@H]3c3ccccc3)CC2)cc1` [GSK2879552]: the IC50 is over 100 µM in data set [26]; 1.19 µM in the data set with MV4-11 [3]; over 20 µM in the data set with RPMI-8226; over 100 µM in data set [28]; over 100 µM in data set [29]; over 100 µM in [30]. Further, the 50% inhibitory concentration (IC50) in [24] and in data set [25] was over 100 µM each time. The “fold change (FC)” value in [27] amounted to 10.15. This compound displayed an EC50 with MV4-11 [4] of 0.023 µM. Further, the outcome in the data set with MV4-11 [31] and with MV4-11 [32] was Active. In data set [33], the inhibition entry is “Active”.
